According to patent US6544991B2, “Compositions and methods for treating bacterial infections” (priority 2000, dated 2003):
Blank lines part the entries; values can stand above or below the molecule they belong to.

Key:
MRSA strains = experiment: MIC by agar dilution or microbroth dilution method (NCCLS); type: cell-based, Staph. aureus
Outline: (§1)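 MICs determined by NCCLS agar dilution or microbroth dilution on clinical isolates, with Staph. aureus 29213 as quality control strain. Synergy by agar dilution checkerboard; FIC computed as MIC of drug in combination divided by MIC alone, summed into FIC index.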

VRSA strains = experiment: MIC by agar dilution or microbroth dilution method (NCCLS), VRSA strains; type: cell-based, Staph. aureus; details: VRSA strains (n = 10)
Protocol: Bacterial isolates were obtained from human infections. The isolates were maintained frozen in a liquid nitrogen freezer and plated on Trypticase Soy Agar (TSA) plates supplemented with 5% sheep blood. The quality control strain Staph. aureus 29213 was originally acquired from the American Type Culture Collection (Rockville, Md.).
MICs were determined by an agar dilution method or microbroth dilution method recommended by NCCLS. Synergy was assessed by agar dilution checker-board method. Minimal inhibitory concentrations (MICS) for each separate drug were determined. The fractional inhibitory concentration (FIC) values were calculated by the MIC of Drug A (e.g., sulbactam/ampicillin) and Drug B (e.g., linezolid or arbekacin) in combination/MIC of Drug A or B alone. The FIC index was determined according to the following formula: [formula]
In total, 48 MRSA strains were tested, including ten VRSA strains isolated from five different countries in the world, 33 MRSA strains isolated from ten Japanese university hospitals, and five MRSA type strains from Juntendo University, Department of Bacteriology, Tokyo, Japan.

Staph. aureus 29213 = experiment: MIC, quality control strain; type: cell-based
Outline: as §1

[1] = strain JSCC 581 (lacks the mecA gene)
[2] = strain JSCC 590 (lacks the mecA gene)
[3] = strain ATCC 29213, control sample (Ex. 26)
[4] = strain ATCC29213, control sample (Ex. 37)

MICs 50% (MRSA strains; MRSA strains (n = 38)): >128 mg/L | MICs 90% (MRSA strains; MRSA strains (n = 38)): >128 mg/L | MIC Values (MRSA strains; strain 85/2082): >128 µg/mL | MIC Values (MRSA strains; strain 99.3700W): >128 µg/mL | MIC Values (MRSA strains; strain 99.3759V): >128 µg/mL | MIC Values (MRSA strains; strain AMC 11094): >128 µg/mL | MIC Values (MRSA strains; strain BM12612(new)): >128 µg/mL | MIC Values (MRSA strains; strain H1): 2048 µg/mL | MIC Values (MRSA strains; strain HIP 5827): >128 µg/mL | MIC Values (MRSA strains; strain HIP 5836): >128 µg/mL | MIC Values (MRSA strains; strain HIP 6297): >128 µg/mL | MIC Values (MRSA strains; strain HIP 7737): >128 µg/mL | MIC Values (MRSA strains; strain JSCC 340): >128 µg/mL | MIC Values (MRSA strains; strain JSCC 351): >128 µg/mL | MIC Values (MRSA strains; strain JSCC 363): >128 µg/mL | MIC Values (MRSA strains; strain JSCC 381): >128 µg/mL | MIC Values (MRSA strains; strain JSCC 390): >128 µg/mL | MIC Values (MRSA strains; strain JSCC 401): >128 µg/mL | MIC Values (MRSA strains; strain JSCC 413): >128 µg/mL | MIC Values (MRSA strains; strain JSCC 431): >128 µg/mL | MIC Values (MRSA strains; strain JSCC 440): >128 µg/mL | MIC Values (MRSA strains; strain JSCC 451): >128 µg/mL | MIC Values (MRSA strains; strain JSCC 463): >128 µg/mL | MIC Values (MRSA strains; strain JSCC 481): >128 µg/mL | MIC Values (MRSA strains; strain JSCC 490): >128 µg/mL | MIC Values (MRSA strains; strain JSCC 501): >128 µg/mL | MIC Values (MRSA strains; strain JSCC 513): >128 µg/mL | MIC Values (MRSA strains; strain JSCC 531): >128 µg/mL | MIC Values (MRSA strains; strain JSCC 540): >128 µg/mL | MIC Values (MRSA strains; strain JSCC 551): >128 µg/mL | MIC Values (MRSA strains; strain JSCC 563): 16 µg/mL | MIC Values (MRSA strains; [1]): 16 µg/mL | MIC Values (MRSA strains; [2]): 16 µg/mL | MIC Values (MRSA strains; strain JSCC 601): >128 µg/mL | MIC Values (MRSA strains; strain JSCC 640): >128 µg/mL | MIC Values (MRSA strains; strain JSCC 651): >128 µg/mL | MIC Values (MRSA strains; strain JSCC 663): >128 µg/mL | MIC Values (MRSA strains; strain JSCC 681): >128 µg/mL | MIC Values (MRSA strains; strain JSCC 690): >128 µg/mL | MIC Values (MRSA strains; strain JSCC 701): >128 µg/mL | MIC Values (MRSA strains; strain JSCC 713): >128 µg/mL | MIC Values (MRSA strains; strain JSCC 731): >128 µg/mL | MIC Values (MRSA strains; strain JSCC 740): >128 µg/mL | MIC Values (MRSA strains; strain JSCC 751): >128 µg/mL | MIC Values (MRSA strains; strain JSCC 763): >128 µg/mL | MIC Values (MRSA strains; strain JSCC 781): >128 µg/mL | MIC Values (MRSA strains; strain JSCC 870): >128 µg/mL | MIC Values (MRSA strains; strain LIM 2): >128 µg/mL | MIC Values (MRSA strains; strain Mu 3): >128 µg/mL | MIC Values (MRSA strains; strain Mu 50): >128 µg/mL | MIC Values (MRSA strains; strain N315): 64 µg/mL | MIC Values (MRSA strains; strain NCTC 10442): >128 µg/mL | MICs 50% (VRSA strains): >128 mg/L | MICs 90% (VRSA strains): >128 mg/L | MICs Range (VRSA strains): >128 mg/L | MIC Values (Staph. aureus 29213; [3]): 8 µg/mL | MIC Values (Staph. aureus 29213; [4]): 4 µg/mL
Structure (SMILES): CO/N=C(\C(=O)N[C@@H]1C(=O)N2C(C(=O)O)=CCS[C@H]12)c1csc(N)n1 [CZX, ceftizoxime]

MICs 50% (MRSA strains; MRSA strains (n = 38)): 16 mg/L | MICs 90% (MRSA strains; MRSA strains (n = 38)): 64 mg/L | MICs Range (MRSA strains; MRSA strains (n = 38)): >0.125 to 128 mg/L | MIC Values (MRSA strains; strain 85/2082): 2 µg/mL | MIC Values (MRSA strains; strain 99.3700W): 32 µg/mL | MIC Values (MRSA strains; strain 99.3759V): 64 µg/mL | MIC Values (MRSA strains; strain AMC 11094): 32 µg/mL | MIC Values (MRSA strains; strain BM12612(new)): 128 µg/mL | MIC Values (MRSA strains; strain H1): 64 µg/mL | MIC Values (MRSA strains; strain HIP 5827): 64 µg/mL | MIC Values (MRSA strains; strain HIP 5836): 8 µg/mL | MIC Values (MRSA strains; strain HIP 6297): 1 µg/mL | MIC Values (MRSA strains; strain HIP 7737): 32 µg/mL | MIC Values (MRSA strains; strain JSCC 340): 64 µg/mL | MIC Values (MRSA strains; strain JSCC 351): 32 µg/mL | MIC Values (MRSA strains; strain JSCC 363): 32 µg/mL | MIC Values (MRSA strains; strain JSCC 381): 32 µg/mL | MIC Values (MRSA strains; strain JSCC 390): 32 µg/mL | MIC Values (MRSA strains; strain JSCC 401): 64 µg/mL | MIC Values (MRSA strains; strain JSCC 413): 16 µg/mL | MIC Values (MRSA strains; strain JSCC 431): 1 µg/mL | MIC Values (MRSA strains; strain JSCC 440): 16 µg/mL | MIC Values (MRSA strains; strain JSCC 451): 64 µg/mL | MIC Values (MRSA strains; strain JSCC 463): 64 µg/mL | MIC Values (MRSA strains; strain JSCC 481): 64 µg/mL | MIC Values (MRSA strains; strain JSCC 490): 32 µg/mL | MIC Values (MRSA strains; strain JSCC 501): 32 µg/mL | MIC Values (MRSA strains; strain JSCC 513): 8 µg/mL | MIC Values (MRSA strains; strain JSCC 531): 32 µg/mL | MIC Values (MRSA strains; strain JSCC 540): 64 µg/mL | MIC Values (MRSA strains; strain JSCC 551): 16 µg/mL | MIC Values (MRSA strains; strain JSCC 563): ≦0.125 mcg/mL | MIC Values (MRSA strains; [1]): ≦0.125 mcg/mL | MIC Values (MRSA strains; [2]): ≦0.125 mcg/mL | MIC Values (MRSA strains; strain JSCC 601): 1 µg/mL | MIC Values (MRSA strains; strain JSCC 640): 32 µg/mL | MIC Values (MRSA strains; strain JSCC 651): 32 µg/mL | MIC Values (MRSA strains; strain JSCC 663): 8 µg/mL | MIC Values (MRSA strains; strain JSCC 681): 8 µg/mL | MIC Values (MRSA strains; strain JSCC 690): 16 µg/mL | MIC Values (MRSA strains; strain JSCC 701): 32 µg/mL | MIC Values (MRSA strains; strain JSCC 713): 32 µg/mL | MIC Values (MRSA strains; strain JSCC 731): 32 µg/mL | MIC Values (MRSA strains; strain JSCC 740): 16 µg/mL | MIC Values (MRSA strains; strain JSCC 751): 32 µg/mL | MIC Values (MRSA strains; strain JSCC 763): 8 µg/mL | MIC Values (MRSA strains; strain JSCC 781): 32 µg/mL | MIC Values (MRSA strains; strain JSCC 870): 16 µg/mL | MIC Values (MRSA strains; strain LIM 2): 8 µg/mL | MIC Values (MRSA strains; strain Mu 3): 128 µg/mL | MIC Values (MRSA strains; strain Mu 50): 64 µg/mL | MIC Values (MRSA strains; strain N315): 1 µg/mL | MIC Values (MRSA strains; strain NCTC 10442): 64 µg/mL | MICs 50% (VRSA strains): 32 mg/L | MICs 90% (VRSA strains): 64 mg/L | MICs Range (VRSA strains): 1 to 128 mg/L | MIC Values (Staph. aureus 29213; [3]): ≦0.125 mcg/mL | MIC Values (Staph. aureus 29213; [4]): ≦0.125 mcg/mL
Structure (SMILES): C[C@@H](O)[C@H]1C(=O)N2C(C(=O)O)=C(SCCN=CN)C[C@H]12 [IPM, imipenem]
